Measured values as given in US9944618B2, “Inhibiting neurotransmitter reuptake” (Mayo Foundation for Medical Education and Research, priority 2013, dated 2018).
Where two headings read alike, the source gives them in different places.

Experiments:
[1] = target: human norepinephrine transporter (Homo sapiens (Human), UniProt P23975); test: Human NET (norepinephrine transporter) uptake assay; format: cell-based; conditions: read-out: hNET Ki
Summary of the method: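 HEK293F cells transfected with human NET were thawed, plated at about 60,000 cells/well and held at 37 °C for at least 3 h. Compounds came from 10 mM DMSO stocks, with nomifensine as control, in 1×HBSS/0.02 M HEPES. Uptake was followed with a neurotransmitter transporter dye, dosed as % of vendor reconstitution, in triplicate.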

[2] = target: human dopamine transporter (Homo sapiens (Human), UniProt Q01959); test: Human DAT (dopamine transporter) uptake assay; format: cell-based; conditions: read-out: hDAT Ki
Summary of the method: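 Uptake inhibition was measured in HEK293F cells transfected with human DAT, plated at ~60,000 cells/well and settled ≥3 h at 37 °C. Compounds came from 10 mM DMSO stocks. Read-out was uptake of a fluorescent neurotransmitter transporter dye in HBSS with 0.02 M HEPES, with dye level given as % of vendor reconstitution; n=3.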

[3] = target: human serotonin transporter (Homo sapiens (Human), UniProt P31645); test: Human SERT (serotonin transporter) uptake assay; format: cell-based; conditions: read-out: hSERT Ki
Summary of the method: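 HEK293F cells transfected with human SERT, about 60,000 per well, settled for ≥3 h at 37° C before compound addition. Uptake was followed with a fluorescent transporter dye in HBSS with 0.02 M HEPES. Background came from 10 μM fluoxetine, nomifensine was the control, n=3.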

hERG = hERG (Homo sapiens (Human), UniProt Q12809); test: Human ERG (hERG) assay, hERG currents in hERG-expressing CHO cells; format: cell-based; conditions: hERG-expressing CHO cells
Excerpt: The voltage-dependent potassium channel encoded by the human ether-a-go-go-related gene (hERG) is believed to play a key role in repolarisation of the ventricular cardiac action potential. Changes in its activity, caused either by inherited mutations of the gene sequence or pharmacological modification, can lead to prolongation of action potential duration. This can lead to prolongation of the QT interval recorded in man on an electrocardiogram and to a potentially fatal cardiac arrhythmia known as Torsades de Pointes.
hERG currents were recorded from hERG-expressing CHO cells. The biophysical and pharmacological characterization of the hERG currents in these cells was performed.

CYP3A4 = CYP3A4 (Homo sapiens (Human), UniProt P08684); test: Cytochrome P450 inhibition assay, recombinant CYP3A4 (BFC substrate); format: in vitro ADME; conditions: recombinant enzyme
Protocol: (§1) Recombinant enzymes, 3A4 and 2D6, generated using the ABL yeast expression system were used. […] The assay mixture also included K2HPO4 (pH 7.4; conc. 0.1 M) and NADPH (conc. 1 mM). The incubation time was 30 minutes, and the reference inhibitor was A-naphthoflavone. For CYP2D6, the enzyme amount was 2 pmol per well, and the substrate (7-methoxy-4-(aminomethyl)-coumarin; MAMC) was used at 20 μM. The assay mixture also included K2HPO4 (pH 7.4; conc. 0.1 M) and NADPH (conc. 0.06 mM). The incubation time was 35 minutes, and the reference inhibitor was quinidine.
(§2) Briefly, 0.6 μL of serially diluted compound was added to 75 μL water. 10 μL of diluted compound in water was then added to each assay plate. 20 μL of a K2HPO4, enzyme, and substrate mixture was added. After 10 minutes of room temperature pre-incubation, 10 μL of NADPH was added, and the plates were placed at 37° C. for 30 or 35 minutes depending on the enzyme being tested. After the incubation was complete, 20 μL of 0.1% Tris/ACN was added to the plate. The plate was read on a FluorStar fluorescence plate reader.

CYP2D6 = CYP2D6 (Homo sapiens (Human), UniProt P10635); test: Cytochrome P450 inhibition assay, recombinant CYP2D6 (MAMC substrate); format: in vitro ADME; conditions: recombinant enzyme
Protocol: as §1, §2

[4] = pKa of basic centres (Table 1); format: physicochemical
[5] = first base, e.g., an aliphatic primary, secondary, or tertiary amine, read-out: pKa (Base 1)
[6] = first base, e.g., an aliphatic primary, secondary, or tertiary amine
[7] = second base in the same molecule (if present), read-out: pKa (Base 2)

Sequence of human serotonin transporter (P31645 whole entry): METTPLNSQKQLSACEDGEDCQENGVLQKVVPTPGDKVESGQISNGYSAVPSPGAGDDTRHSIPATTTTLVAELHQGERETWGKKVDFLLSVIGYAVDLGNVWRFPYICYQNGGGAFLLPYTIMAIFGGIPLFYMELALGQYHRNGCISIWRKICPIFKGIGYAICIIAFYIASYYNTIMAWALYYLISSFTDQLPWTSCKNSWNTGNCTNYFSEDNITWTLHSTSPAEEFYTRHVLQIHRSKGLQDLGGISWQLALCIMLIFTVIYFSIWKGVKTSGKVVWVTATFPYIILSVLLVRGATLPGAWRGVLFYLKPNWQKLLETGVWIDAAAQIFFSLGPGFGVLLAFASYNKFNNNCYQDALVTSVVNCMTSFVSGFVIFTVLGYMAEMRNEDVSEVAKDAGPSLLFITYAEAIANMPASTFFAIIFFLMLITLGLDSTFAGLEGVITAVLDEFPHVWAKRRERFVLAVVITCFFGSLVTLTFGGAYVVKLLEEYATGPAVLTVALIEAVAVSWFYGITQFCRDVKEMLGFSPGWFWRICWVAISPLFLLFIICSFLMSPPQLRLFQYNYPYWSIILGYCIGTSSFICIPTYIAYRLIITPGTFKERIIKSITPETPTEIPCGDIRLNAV
Sequence of CYP2D6 (P10635 whole entry): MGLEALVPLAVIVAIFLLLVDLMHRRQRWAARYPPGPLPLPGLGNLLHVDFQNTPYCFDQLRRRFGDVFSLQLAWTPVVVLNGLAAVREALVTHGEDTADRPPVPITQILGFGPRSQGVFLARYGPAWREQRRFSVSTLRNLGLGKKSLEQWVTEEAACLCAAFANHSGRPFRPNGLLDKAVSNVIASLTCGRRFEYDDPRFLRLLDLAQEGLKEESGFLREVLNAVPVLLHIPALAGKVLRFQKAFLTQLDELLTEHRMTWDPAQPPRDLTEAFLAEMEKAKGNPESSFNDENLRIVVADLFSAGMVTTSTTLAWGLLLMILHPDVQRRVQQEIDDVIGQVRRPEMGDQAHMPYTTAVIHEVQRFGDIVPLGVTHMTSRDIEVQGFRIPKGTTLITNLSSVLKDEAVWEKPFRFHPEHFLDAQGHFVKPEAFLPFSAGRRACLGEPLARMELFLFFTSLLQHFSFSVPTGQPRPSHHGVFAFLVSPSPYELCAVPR
Sequence of CYP3A4 (P08684 whole entry): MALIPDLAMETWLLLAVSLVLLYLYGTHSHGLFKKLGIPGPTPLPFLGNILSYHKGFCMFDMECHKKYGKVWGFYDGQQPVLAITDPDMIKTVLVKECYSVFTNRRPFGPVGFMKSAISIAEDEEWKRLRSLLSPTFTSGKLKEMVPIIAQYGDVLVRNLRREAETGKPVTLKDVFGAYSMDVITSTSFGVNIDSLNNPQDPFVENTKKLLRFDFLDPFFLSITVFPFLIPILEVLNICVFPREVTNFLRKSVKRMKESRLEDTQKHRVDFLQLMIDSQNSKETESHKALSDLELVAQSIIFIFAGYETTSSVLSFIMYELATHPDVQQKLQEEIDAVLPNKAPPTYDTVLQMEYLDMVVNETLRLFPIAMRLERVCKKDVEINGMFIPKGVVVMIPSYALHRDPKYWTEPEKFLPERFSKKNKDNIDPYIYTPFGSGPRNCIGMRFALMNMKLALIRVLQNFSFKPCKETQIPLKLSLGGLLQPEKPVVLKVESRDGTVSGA
Sequence of hERG (Q12809 whole entry): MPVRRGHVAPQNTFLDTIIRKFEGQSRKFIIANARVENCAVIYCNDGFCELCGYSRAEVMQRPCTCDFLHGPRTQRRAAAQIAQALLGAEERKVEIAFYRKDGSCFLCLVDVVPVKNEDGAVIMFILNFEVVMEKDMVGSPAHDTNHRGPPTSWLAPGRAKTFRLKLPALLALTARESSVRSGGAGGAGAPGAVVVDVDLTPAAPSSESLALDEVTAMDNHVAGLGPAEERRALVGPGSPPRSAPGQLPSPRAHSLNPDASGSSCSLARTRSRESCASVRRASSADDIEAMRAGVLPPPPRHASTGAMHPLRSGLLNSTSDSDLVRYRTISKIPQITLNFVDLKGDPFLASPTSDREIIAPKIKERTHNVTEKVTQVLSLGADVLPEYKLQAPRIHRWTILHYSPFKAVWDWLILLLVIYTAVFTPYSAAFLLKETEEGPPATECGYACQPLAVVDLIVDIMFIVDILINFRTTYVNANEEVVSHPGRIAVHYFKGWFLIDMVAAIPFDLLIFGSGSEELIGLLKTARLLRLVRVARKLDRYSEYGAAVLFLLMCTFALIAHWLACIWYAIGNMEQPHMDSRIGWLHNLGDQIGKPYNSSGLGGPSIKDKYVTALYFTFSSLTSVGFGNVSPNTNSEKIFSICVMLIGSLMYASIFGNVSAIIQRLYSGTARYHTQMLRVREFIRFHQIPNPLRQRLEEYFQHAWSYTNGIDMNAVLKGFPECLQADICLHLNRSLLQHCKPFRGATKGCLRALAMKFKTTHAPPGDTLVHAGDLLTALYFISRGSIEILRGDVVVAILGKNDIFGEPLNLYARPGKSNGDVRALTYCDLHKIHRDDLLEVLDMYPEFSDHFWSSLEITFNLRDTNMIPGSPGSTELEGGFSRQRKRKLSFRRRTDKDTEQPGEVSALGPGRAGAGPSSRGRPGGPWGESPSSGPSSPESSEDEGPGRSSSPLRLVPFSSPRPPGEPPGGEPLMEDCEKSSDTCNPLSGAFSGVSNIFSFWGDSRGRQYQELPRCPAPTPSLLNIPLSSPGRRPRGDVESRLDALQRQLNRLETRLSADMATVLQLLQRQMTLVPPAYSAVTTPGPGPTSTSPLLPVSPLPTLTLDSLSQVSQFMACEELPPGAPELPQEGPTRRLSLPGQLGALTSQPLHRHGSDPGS
Sequence of human dopamine transporter (Q01959 whole entry): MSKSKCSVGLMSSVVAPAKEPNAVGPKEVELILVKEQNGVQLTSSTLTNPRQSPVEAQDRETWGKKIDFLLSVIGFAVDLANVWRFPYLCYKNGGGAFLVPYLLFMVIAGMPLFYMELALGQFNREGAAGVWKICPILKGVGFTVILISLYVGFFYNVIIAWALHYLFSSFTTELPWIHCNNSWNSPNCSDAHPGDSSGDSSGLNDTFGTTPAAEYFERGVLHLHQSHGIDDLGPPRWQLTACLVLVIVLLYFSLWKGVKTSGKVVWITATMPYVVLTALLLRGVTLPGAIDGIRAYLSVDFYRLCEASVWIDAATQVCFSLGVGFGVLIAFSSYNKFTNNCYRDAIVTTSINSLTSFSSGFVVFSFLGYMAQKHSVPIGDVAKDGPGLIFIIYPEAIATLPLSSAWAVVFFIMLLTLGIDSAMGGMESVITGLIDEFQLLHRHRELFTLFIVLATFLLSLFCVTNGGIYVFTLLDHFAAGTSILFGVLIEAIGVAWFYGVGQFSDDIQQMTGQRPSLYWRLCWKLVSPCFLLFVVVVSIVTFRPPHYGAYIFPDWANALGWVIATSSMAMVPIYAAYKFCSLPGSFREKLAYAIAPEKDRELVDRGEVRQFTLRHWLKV
Sequence of human norepinephrine transporter (P23975 whole entry): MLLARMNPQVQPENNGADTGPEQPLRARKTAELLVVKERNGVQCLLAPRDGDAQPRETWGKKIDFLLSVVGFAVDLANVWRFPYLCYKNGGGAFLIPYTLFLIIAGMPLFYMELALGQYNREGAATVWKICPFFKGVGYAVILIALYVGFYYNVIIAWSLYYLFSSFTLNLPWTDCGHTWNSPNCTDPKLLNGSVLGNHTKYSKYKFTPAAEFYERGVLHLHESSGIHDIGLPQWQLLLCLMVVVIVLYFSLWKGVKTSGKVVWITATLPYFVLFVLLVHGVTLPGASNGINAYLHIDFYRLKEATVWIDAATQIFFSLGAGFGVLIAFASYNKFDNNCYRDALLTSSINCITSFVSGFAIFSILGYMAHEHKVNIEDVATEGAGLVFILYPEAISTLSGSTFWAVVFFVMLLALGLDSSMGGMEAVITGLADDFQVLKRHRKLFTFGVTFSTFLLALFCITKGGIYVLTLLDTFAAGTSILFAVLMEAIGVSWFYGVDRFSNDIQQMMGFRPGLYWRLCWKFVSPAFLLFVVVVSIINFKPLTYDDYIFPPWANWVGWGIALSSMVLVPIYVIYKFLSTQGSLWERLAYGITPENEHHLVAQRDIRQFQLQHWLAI

Ki [1] [nM]	Ki [2] [nM]	Ki [3] [nM]	IC50 (CYP3A4) [nM]	IC50 (CYP2D6) [nM]	pKa [4, 5]	pKa (Base 1) [4, 6]	pKa [4, 7]	Structure (SMILES)	IC50 (hERG) [nM]
2.7	28.5	7.5	20000	12000	9.6			CNC[C@H](c1ccc2ccccc2c1)[C@H](OCC(=O)N1CC[C@@H](O)C1)c1ccccc1 [Compound 34]	33000
3.1	34.3	12.6	8400	170		10.1		CNCC(Cc1ccccc1C)c1ccc2ccccc2c1 (stereo not drawn) [Compound 39]	8200
3.2	89.5	0.3	3400	1100	9.2		5.2	C[C@](CN)(Cc1cccnc1)c1ccc2ccccc2c1 [Compound 42]	27000
3.3	74.1	12.2	8000	1000	10			CNC[C@@H](Cc1ccc(C)s1)c1ccc2ccccc2c1 [Compound 44]	3300
3.8	78	2.3	15000	580	9.9			CNCC(Cc1cccnc1)c1ccc2ccccc2c1 (stereo not drawn) [Compound 48]	33000
5.3	83.2	10.7	20000	560	9.7			CNC[C@H](c1ccc2ccccc2c1)[C@@H](O)c1ccccc1F [Compound 60]	28000
5.8	14.6	0.9	20000	300	9.5			CNC[C@H](c1ccc2ccccc2c1)[C@@H](Cl)c1ccccc1 [Compound 61]	9800
7.5	18.1	243	7800	43	9.3			CNC[C@H](c1ccc(Cl)c(Cl)c1)[C@@H](O)c1ccccc1[N+](=O)[O-] [Compound 65]	19000
8.1	28.9	46.7	20000	260	10.1			CNCC(CCc1ccccc1)[C@H](O)c1ccccc1 (stereo partly drawn) [Compound 66]	15000
8.2	69.7	0.7	20000	330	9.6			CNC[C@H](c1ccc2ccccc2c1)[C@H](OCc1nc(C)no1)c1ccccc1 [Compound 67]	15000
9.5	48.5	142	20000	220	9.4			CNC[C@H](c1ccc(Cl)c(Cl)c1)[C@@H](O)c1ccccc1 [Compound 70]	31000
10.3	109	13.6	8100	790		9.9	5.2	CNCC(Cc1cccnc1)c1ccc2ccccc2c1 (stereo not drawn) [Compound 74]	20000
11.9	21.2	222	3600	140	9.4			CNC[C@H](c1ccc(Cl)c(Cl)c1)[C@H](O)c1cccc(Br)c1 [Compound 76]	3000
14.3	26.1	15.3	20000	1100	9.7			CNC[C@@H](c1ccc2ccccc2c1)[C@@H](O)c1ccccc1F [Compound 78]	12000
15.3	9.8	15.3	20000	990	9		8.3	CN(C)C[C@H](c1ccc2ccccc2c1)[C@H](N)c1ccccc1 [Compound 82]	19000
16.4	247	16.1	20000	1000	10.1			CNCC(C[C@H](O)c1ccccc1)c1ccc2ccccc2c1 (stereo partly drawn) [Compound 85]	21000
16.7	9.9	2.7	20000	290	9.2			CN(C)CC(C)(c1ccc2ccccc2c1)C(O)c1ccccc1 (stereo not drawn) [Compound 86]	850
18.1	114	6.1	940	66	9.8		8.5	CNC[C@H](c1ccc2ccccc2c1)[C@H](N)c1ccccc1 [Compound 87]	17000
21.4	25	1.8	20000	1800	8.9			CN(C)C[C@H](c1ccc2ccccc2c1)[C@H](OCCO)c1ccccc1 [Compound 89]	6600
28	216	9.3	20000	810	9.6		4.5	CNC[C@H](c1ccc2ccccc2c1)[C@H](O)c1cncc(OC)c1 [Compound 92]	33000
32.8	52.6	367	18000	3000	9.4			CNC[C@H](c1ccc(Cl)c(Cl)c1)[C@@H](O)c1cccc(NC(C)=O)c1 [Compound 94]	33000
33.5	30.7	36.9	11000	410	8			NC[C@H](c1ccc2ccccc2c1)[C@@H](O)c1ccncc1Cl [Compound 95]	33000
36.8	158	9.9	20000	1100	9.7			CNC[C@@H](c1ccc2ccccc2c1)[C@H](O)c1ccccc1F [Compound 96]	33000
38.2	22.6	78.4	15000	180	9.4			CNC[C@H](c1ccc(Cl)c(Cl)c1)[C@@H](O)c1ccccc1SC [Compound 97]	8000
38.8	216	167	20000	850	9.4			CNC[C@@H](c1ccc(Cl)c(Cl)c1)[C@H](O)c1cccc(NC(C)=O)c1 [Compound 98]	33000
41	287	43.2	≥ 20000	3600	9.6		4.1	CNC[C@@H](c1ccc2ccccc2c1)[C@H](O)c1ccccn1 [Compound 99]	33000
43.8	27.4	361	8200	64	9.4			CNC[C@H](c1ccc(Cl)c(Cl)c1)[C@@H](O)c1ccccc1-c1cccs1 [Compound 100]	21000

Structure (SMILES)	Ki [1] [nM]	Ki [2] [nM]	Ki [3] [nM]	IC50 (CYP3A4) [nM]	IC50 (CYP2D6) [nM]	pKa [4, 5]	pKa (Base 1) [4, 6]	pKa [4, 7]	IC50 (hERG) [nM]
CNC[C@@H](c1ccc2ccccc2c1)[C@@H](O)c1cccnc1 [Compound 49]	3.8	213	5.6	20000	1700	9.6		5.1	25000
CNCC(Cc1ccccc1O)c1ccc2ccccc2c1 (stereo not drawn) [Compound 52]	4.1	26.7	20.4	20000	900	10			12000
CNCC(Cc1ccccc1OC)c1ccc2ccccc2c1 (stereo not drawn) [Compound 57]	5	20.2	5.9	3300	190	10.1			4700
CNCC(Cc1ccccc1O)c1ccc2ccccc2c1 (stereo not drawn) [Compound 69]	9	21.9	21.2	20000	510		10		9500
CNC[C@@H](c1ccc(Br)c(Cl)c1)[C@@H](O)c1ccccc1 [Compound 110]	142	24	677	17000	1900	9.4			6800
